From publication PMC12748375, “Insights into cannabinoid receptor 2 (CB2) anterograde trafficking and pharmacological chaperoning” (Cellular and Molecular Life Sciences: CMLS, 2025)

Columns and labels:
[1] = target: T1, hCB2 wt (Homo sapiens, UniProt P34972, K318E/K319E); test: net surface expression, immunocytochemistry (Method B); type: cell-based; details: read-out: Method B: Net Surface Expression (3 h) / KK mutant / pEC50 (± SEM) (converted)
T1 construct: gene CNR2; full-length (63Q), N-terminal HA tag and three thrombin cleavage sites (HA-3TCS), pcDNA5/FRT, expressed in HEK Flp-in-293 cells

[2] = target: T2, hCB2 wt (Homo sapiens, UniProt P34972); test: receptor internalisation, surface HA immunocytochemistry (Method A); type: cell-based; details: read-out: Method A: Internalisation (3 h) / CB2 wt / pEC50 (± SEM) (converted)
T2 construct: gene CNR2; full-length (63Q), N-terminal HA tag and three thrombin cleavage sites (HA-3TCS), pcDNA5/FRT, expressed in HEK Flp-in-293 cells
Text: receptor internalisation, surface HA immunocytochemistry (Method A) on hCB2 wt

T2 sequence (P34972 whole entry): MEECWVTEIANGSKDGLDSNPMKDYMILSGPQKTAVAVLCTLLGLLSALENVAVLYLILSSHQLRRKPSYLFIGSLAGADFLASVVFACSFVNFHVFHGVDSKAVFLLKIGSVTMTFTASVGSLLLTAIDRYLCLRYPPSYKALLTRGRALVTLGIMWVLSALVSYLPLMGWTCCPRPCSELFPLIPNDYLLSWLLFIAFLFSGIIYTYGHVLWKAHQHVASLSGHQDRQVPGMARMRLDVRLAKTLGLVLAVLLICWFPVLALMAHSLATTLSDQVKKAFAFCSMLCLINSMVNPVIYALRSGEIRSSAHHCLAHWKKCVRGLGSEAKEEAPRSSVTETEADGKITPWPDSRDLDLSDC
T1 sequence (P34972 whole entry K318E/K319E): as the sequence (P34972 whole entry) above, with K318E, K319E counted along it

Structure (SMILES)	EC50 [1] [nM]	EC50 [2] [nM]
COc1ccc(C(=O)c2c(C)n(CCN3CCOCC3)c3cc(I)ccc23)cc1 [AM630]	513	
CCCCC/C=C\C/C=C\C/C=C\C/C=C\CCCC(=O)OC(CO)CO [2-AG]		741
